Measurements taken from ChEMBL document CHEMBL1201862, “PubChem BioAssay data set” (2004).
The source made the active and inactive calls.

Key:
Tumor necrosis factor = Tumor necrosis factor (Homo sapiens, UniProt P01375); assay: TNFa-triggered NF-kB activation inhibitors, SAR follow-up, cell-based, revised (AID 2337); format: functional
[1] = target: Nucleotide-binding oligomerization domain-containing protein 1 (Homo sapiens, UniProt Q9Y239); assay: NOD1 signaling inhibitors, SAR follow-up, revised (AID 2333); format: functional
HEK293 = assay: cells; conditions: Homo sapiens;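 further: cells exposed to compound for 14 hours overnight before viability readout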
[2] = target: T1, Delta-type opioid receptor (Homo sapiens, UniProt P41143); assay: HTS Image-Based Screen for Antagonists of the DOR Receptor. [Related pubchem assays (depositor defined):AID1777, AID1785, AID1786, AID2133]; format: functional
T1 sequence (P41143 whole entry): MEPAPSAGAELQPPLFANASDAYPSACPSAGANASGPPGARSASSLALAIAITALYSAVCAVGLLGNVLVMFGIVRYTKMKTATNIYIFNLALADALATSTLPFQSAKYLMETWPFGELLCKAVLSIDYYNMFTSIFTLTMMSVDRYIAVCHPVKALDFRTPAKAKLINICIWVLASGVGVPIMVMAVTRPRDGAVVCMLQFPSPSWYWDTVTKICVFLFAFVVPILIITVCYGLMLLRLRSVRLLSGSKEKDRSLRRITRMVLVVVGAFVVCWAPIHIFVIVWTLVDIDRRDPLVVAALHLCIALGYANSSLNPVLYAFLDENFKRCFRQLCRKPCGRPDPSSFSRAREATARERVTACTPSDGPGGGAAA

[3] = target: T2, Kappa-type opioid receptor (Homo sapiens, UniProt P41145); format: functional
T2 sequence (P41145 whole entry): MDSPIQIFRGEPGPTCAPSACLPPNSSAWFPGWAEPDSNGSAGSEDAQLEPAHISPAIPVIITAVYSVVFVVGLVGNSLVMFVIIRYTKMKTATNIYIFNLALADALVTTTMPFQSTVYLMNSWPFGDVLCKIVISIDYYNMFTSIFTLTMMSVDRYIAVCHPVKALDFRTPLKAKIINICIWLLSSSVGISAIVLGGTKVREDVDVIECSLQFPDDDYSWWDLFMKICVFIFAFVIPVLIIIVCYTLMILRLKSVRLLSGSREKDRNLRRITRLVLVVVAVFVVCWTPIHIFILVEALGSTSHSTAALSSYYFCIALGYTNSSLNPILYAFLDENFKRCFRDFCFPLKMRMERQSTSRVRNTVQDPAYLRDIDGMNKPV

Beta-galactosidase = Beta-galactosidase (Escherichia coli, UniProt Q8VNN2); format: functional
Sequence of Beta-galactosidase (Q8VNN2 whole entry): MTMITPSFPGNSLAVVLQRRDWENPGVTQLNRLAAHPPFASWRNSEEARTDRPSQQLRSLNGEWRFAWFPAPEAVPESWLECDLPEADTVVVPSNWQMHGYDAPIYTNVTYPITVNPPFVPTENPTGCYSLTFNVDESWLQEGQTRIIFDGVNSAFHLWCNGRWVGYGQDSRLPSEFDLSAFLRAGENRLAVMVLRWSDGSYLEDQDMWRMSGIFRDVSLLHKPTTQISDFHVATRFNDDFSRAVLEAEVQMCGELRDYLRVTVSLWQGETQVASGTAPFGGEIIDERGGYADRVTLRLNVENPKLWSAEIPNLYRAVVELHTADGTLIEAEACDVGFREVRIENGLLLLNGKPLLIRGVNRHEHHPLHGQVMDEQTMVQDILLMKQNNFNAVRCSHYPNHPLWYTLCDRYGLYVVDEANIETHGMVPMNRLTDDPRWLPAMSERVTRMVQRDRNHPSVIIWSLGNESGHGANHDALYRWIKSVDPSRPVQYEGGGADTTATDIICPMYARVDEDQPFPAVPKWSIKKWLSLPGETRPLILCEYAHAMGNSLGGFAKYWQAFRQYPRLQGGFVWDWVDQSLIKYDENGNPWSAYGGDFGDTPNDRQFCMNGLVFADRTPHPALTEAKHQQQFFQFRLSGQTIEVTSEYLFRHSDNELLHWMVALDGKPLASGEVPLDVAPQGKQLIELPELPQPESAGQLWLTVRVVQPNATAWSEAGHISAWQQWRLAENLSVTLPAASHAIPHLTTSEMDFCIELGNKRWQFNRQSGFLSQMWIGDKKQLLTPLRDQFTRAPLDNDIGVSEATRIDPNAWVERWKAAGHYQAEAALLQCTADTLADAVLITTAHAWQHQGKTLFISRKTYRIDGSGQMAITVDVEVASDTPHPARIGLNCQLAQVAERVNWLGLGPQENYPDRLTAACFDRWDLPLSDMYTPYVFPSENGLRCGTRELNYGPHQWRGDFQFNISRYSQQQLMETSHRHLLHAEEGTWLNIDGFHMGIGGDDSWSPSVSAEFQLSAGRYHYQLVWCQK

[4] = target: T2, Kappa-type opioid receptor; format: functional; remark: listed apart in the source
Mu-type opioid receptor = Mu-type opioid receptor (Homo sapiens, UniProt P35372); assay: HTS Image-Based Screen for Agonists of the MOR Receptor. [Related pubchem assays (depositor defined):AID1777, AID1785, AID1786, AID2133]; format: functional;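 further: imaging of beta-arrestin GFP recruitment into spots after receptor activation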
Sequence of Mu-type opioid receptor (P35372 whole entry): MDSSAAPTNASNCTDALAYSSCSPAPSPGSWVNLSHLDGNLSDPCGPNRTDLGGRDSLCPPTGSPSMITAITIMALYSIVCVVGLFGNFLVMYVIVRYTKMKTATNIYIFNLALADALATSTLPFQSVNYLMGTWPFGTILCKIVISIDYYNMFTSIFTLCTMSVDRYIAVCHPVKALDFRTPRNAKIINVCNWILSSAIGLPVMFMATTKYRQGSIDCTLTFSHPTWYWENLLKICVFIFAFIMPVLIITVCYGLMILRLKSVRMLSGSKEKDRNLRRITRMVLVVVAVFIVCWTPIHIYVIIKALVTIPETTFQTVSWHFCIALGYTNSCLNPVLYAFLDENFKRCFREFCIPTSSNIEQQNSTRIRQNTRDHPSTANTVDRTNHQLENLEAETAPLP

[5] = target: T1, Delta-type opioid receptor; assay: HTS Image-Based Screen for Agonists of the DOR Receptor. [Related pubchem assays (depositor defined):AID1777, AID1786, AID2133]; format: functional
CAAX prenyl protease 2 [6] = target: T3, CAAX prenyl protease 2 (Homo sapiens, UniProt Q9Y256); assay: human Rce1 protease inhibitors, dose response, biochemical, yeast membranes, quenched-peptide fluorescence, cherry-pick (AID 588849)
T3 sequence (Q9Y256 whole entry): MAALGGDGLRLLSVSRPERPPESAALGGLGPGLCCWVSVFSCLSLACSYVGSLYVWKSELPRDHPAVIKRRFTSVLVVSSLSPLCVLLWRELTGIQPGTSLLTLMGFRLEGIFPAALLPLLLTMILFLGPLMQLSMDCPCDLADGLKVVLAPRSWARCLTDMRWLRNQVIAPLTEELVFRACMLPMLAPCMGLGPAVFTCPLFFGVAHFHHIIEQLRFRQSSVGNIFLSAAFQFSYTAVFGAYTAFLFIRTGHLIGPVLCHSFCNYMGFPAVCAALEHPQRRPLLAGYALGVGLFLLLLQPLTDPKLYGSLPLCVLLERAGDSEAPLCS

Protein RecA = target: T4, Protein RecA (Mycobacterium tuberculosis, UniProt P9WHJ3); assay: Fluorescence Cell-Free Homogeneous Dose Retest to Identify Inhibitors of RecA-Intein Splicing Activity. [Related pubchem assays (depositor defined):AID2097, AID2223, AID489010, AID492950]; format: functional
T4 sequence (P9WHJ3 whole entry): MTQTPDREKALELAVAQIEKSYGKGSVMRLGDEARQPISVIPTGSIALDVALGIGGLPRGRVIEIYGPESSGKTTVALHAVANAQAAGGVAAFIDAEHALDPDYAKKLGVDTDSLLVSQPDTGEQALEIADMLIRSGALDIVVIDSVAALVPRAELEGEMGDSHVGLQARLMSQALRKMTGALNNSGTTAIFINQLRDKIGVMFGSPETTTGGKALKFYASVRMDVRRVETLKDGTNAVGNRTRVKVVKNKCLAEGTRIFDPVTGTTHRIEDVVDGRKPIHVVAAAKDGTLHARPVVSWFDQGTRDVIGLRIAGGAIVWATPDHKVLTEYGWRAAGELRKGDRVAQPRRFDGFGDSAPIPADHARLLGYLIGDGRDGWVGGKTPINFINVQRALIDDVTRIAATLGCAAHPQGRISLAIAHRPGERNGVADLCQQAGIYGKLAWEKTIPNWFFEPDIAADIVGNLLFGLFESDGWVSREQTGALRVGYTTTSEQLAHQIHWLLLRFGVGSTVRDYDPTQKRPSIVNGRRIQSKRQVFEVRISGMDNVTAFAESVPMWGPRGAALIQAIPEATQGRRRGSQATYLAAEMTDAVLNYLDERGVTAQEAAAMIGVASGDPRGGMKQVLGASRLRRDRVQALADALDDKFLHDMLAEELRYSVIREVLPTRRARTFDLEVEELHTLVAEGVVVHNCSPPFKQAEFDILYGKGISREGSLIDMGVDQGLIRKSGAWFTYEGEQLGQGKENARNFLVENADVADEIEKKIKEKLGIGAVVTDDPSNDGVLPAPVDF

[7] = target: T5, G-protein coupled receptor 55 (Homo sapiens, UniProt Q9Y2T6); assay: GPR55 antagonists blocking LPI-driven arrestin recruitment, primary screen, imaging, U2OS, beta-arrestin-GFP, LPI agonist (AID 2013); format: functional;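 further: antagonist potency measured as reduced agonist-driven arrestin aggregation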
T5 sequence (Q9Y2T6 whole entry): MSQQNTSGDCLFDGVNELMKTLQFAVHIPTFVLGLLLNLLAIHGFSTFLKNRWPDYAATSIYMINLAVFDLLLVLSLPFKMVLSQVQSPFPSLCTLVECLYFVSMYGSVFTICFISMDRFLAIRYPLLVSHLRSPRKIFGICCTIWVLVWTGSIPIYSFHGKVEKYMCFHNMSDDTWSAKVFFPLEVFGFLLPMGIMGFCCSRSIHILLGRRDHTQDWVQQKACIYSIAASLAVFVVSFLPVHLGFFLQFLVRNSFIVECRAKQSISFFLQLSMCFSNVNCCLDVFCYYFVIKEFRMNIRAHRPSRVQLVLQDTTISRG

[8] = mammalian cell cytotoxicity, dose response, cytotoxicity control, plate reader, cherry-pick samples (AID 504397); format: functional, cell-based
CAAX prenyl protease 2 [9] = target: T6, CAAX prenyl protease 2 (Saccharomyces cerevisiae S288c, UniProt Q03530); format: biochemical
T6 sequence (Q03530 whole entry): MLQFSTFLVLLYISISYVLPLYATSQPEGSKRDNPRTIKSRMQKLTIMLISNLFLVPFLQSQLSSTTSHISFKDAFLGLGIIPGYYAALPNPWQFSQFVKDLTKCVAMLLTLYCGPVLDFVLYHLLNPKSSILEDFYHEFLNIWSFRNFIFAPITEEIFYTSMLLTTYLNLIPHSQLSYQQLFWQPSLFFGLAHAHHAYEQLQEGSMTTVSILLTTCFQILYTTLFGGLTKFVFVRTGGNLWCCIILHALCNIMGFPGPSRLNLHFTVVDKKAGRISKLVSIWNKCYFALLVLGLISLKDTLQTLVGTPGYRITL

Integrin alpha-4 = Integrin alpha-4 (Homo sapiens, UniProt P13612); assay: VLA-4 integrin allosteric ligands, SAR follow-up, cell-based, LIBS antibody binding, flow cytometry (AID 488791); format: functional
Sequence of Integrin alpha-4 (P13612 whole entry): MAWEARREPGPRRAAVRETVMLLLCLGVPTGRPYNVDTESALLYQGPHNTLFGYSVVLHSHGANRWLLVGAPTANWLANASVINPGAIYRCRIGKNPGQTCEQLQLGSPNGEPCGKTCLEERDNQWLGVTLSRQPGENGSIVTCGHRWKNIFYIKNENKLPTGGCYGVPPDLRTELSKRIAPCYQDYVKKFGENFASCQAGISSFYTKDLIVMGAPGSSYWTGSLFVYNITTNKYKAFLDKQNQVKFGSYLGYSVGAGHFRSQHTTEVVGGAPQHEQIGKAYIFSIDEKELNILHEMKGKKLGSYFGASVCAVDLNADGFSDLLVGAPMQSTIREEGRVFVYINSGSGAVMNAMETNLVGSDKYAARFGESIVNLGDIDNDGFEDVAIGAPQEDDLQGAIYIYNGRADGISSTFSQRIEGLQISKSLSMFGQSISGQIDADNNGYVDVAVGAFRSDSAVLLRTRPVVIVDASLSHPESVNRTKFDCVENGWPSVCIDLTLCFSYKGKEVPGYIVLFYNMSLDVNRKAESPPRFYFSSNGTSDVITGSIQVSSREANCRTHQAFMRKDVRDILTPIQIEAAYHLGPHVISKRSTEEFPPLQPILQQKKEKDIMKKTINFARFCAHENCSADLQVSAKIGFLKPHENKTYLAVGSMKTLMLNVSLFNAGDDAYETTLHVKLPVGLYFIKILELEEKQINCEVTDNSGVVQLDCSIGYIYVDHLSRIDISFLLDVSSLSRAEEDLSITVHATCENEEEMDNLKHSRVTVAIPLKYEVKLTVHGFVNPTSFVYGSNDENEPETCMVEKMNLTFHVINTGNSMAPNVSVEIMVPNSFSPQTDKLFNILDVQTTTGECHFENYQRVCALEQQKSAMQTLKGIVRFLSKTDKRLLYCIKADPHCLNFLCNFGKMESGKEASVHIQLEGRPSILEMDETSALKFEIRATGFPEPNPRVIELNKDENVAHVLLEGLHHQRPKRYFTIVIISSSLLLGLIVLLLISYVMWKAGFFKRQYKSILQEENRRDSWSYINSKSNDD

[10] = growth suppression of PTEN-null colon cells, dose response, cell-based, HCT116 PTEN knockout (AID 1047); format: functional;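 further: HCT116 colon tumor cells with PTEN knocked out; cells exposed to compound for 60 hours before readout; potency for loss of cell viability measured by luminescence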
[11] = growth suppression of beta-catenin-knockout colon cells, dose response, cell-based, HCT116, human colon tumor (AID 1045); format: functional;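 further: HCT116 colon tumor cells with beta catenin knocked out; cells exposed to compound for 60 hours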
[12] = target: T7, Replicative DNA helicase DnaB (Mycobacterium tuberculosis, UniProt P9WMR3); assay: DnaB intein splicing inhibitors, dose response, biochemical, cell-free fluorescence (AID 449749); format: functional
T7 sequence (P9WMR3 whole entry): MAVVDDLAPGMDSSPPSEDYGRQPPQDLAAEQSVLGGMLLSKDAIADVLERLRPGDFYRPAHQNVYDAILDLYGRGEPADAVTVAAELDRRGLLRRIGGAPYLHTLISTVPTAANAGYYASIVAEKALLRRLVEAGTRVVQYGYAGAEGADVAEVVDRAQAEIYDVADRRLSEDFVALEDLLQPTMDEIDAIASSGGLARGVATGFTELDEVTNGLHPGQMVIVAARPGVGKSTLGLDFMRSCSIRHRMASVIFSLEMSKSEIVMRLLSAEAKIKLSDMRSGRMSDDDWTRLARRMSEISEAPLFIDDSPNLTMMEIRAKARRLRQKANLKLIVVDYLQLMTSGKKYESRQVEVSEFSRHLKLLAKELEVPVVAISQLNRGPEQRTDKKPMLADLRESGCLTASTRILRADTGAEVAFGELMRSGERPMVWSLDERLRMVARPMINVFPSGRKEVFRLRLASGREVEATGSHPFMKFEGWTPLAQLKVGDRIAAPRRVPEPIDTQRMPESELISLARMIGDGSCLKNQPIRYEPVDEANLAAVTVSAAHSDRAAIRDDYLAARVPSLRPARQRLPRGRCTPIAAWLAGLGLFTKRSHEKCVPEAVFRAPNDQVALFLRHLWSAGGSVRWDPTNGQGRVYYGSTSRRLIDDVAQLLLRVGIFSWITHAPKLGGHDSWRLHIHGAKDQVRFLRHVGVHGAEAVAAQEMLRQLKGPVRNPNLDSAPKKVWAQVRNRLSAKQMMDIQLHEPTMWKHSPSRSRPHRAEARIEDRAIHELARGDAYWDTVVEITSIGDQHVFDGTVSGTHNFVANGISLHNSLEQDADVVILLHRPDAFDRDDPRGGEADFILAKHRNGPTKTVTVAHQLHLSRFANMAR

[13] = target: T8, G-protein coupled receptor 35 (Homo sapiens, UniProt Q9HC97); assay: GPR35 antagonists blocking zaprinast-driven arrestin recruitment, primary screen, imaging, U2OS, beta-arrestin-GFP, zaprinast agonist (AID 2058); format: functional;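 further: antagonist potency meaning inhibition of agonist-induced arrestin redistribution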
T8 sequence (Q9HC97 whole entry): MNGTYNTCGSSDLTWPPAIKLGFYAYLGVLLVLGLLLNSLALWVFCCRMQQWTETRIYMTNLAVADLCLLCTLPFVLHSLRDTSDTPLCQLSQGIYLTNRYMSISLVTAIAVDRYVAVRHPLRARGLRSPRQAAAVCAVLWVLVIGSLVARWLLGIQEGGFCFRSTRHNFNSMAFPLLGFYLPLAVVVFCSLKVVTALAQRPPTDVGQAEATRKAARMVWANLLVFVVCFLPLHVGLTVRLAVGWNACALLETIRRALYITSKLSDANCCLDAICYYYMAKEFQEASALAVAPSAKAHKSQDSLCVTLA

[14] = target: T8, G-protein coupled receptor 35; assay: SAR analysis of Agonists of the GPR35 Receptor using an Image-Based Assay - Set 2. [Related pubchem assays (depositor defined):AID2013, AID2026]; format: functional
[15] = cytotoxicity toward NIH3T3 fibroblasts, dose response, counter-screen, cell-based, ATP luminescence, mouse fibroblasts (AID 2010); format: functional;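 further: cells exposed to compound for about 90 hours before reading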
Cannabinoid receptor 2 [16] = target: T9, Cannabinoid receptor 2 (Homo sapiens, UniProt P34972); assay: SAR analysis of agonists of the Cannabinoid Receptor 2 using an Image-Based Assay. [Related pubchem assays (depositor defined):AID2013, AID2026]; format: functional
T9 sequence (P34972 whole entry): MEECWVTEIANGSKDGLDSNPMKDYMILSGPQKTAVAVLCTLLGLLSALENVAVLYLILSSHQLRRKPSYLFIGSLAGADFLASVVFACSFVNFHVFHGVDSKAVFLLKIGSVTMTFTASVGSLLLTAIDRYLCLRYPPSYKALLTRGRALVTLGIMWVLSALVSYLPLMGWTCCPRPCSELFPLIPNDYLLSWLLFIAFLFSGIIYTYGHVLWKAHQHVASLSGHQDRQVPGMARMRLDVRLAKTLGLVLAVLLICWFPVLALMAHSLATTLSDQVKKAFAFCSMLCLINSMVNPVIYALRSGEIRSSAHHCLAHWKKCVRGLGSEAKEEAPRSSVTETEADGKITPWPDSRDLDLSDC

Cannabinoid receptor 2 [17] = target: T9, Cannabinoid receptor 2; assay: SAR analysis of antagonists of the Cannabinoid Receptor 2 using an Image-Based Assay. [Related pubchem assays (depositor defined):AID2013, AID2026]; format: functional
Cannabinoid receptor 1 [18] = target: T10, Cannabinoid receptor 1 (Homo sapiens, UniProt P21554); assay: SAR analysis of antagonists of the Cannabinoid Receptor 1 using an Image-Based Assay - Set 2. [Related pubchem assays (depositor defined):AID2013, AID2026]; format: functional
T10 sequence (P21554 whole entry): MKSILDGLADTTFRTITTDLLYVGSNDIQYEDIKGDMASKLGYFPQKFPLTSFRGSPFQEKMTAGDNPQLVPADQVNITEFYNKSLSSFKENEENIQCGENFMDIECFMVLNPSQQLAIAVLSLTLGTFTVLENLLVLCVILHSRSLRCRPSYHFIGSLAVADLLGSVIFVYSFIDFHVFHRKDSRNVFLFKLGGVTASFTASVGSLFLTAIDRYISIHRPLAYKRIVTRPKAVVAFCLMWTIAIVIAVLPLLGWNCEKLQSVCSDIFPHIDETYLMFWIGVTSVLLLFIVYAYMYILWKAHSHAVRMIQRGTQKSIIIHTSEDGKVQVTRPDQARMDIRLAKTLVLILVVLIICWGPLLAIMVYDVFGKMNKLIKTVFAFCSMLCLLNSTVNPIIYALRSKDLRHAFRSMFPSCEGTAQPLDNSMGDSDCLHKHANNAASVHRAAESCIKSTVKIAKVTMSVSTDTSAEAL

Cannabinoid receptor 1 [19] = target: T10, Cannabinoid receptor 1; assay: SAR analysis of agonists of the Cannabinoid Receptor 1 using an Image-Based Assay - Set 2. [Related pubchem assays (depositor defined):AID2013, AID2026]; format: functional
[20] = target: T5, G-protein coupled receptor 55; assay: GPR55 antagonist potency of analogs, SAR follow-up, imaging, U2OS, beta-arrestin-GFP, LPI agonist, set 2 (AID 2820); format: functional
[21] = inhibitors of intracellular T. cruzi replication, confirmation, NIH3T3 host cells, beta-gal luminescence (AID 2044); format: functional, cell-based;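 further: intracellular parasites grown in NIH/3T3 mouse fibroblasts as host cells; luminescent beta-galactosidase reporter signal from transgenic T. cruzi replicating inside host cells; inhibitors lower the luminescence signal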
[22] = target: T8, G-protein coupled receptor 35; assay: SAR analysis of Antagonists of the GPR35 Receptor using an Image-Based Assay - Set 3. [Related pubchem assays (depositor defined):AID2013, AID2026]; format: functional

Sequence of Tumor necrosis factor (P01375 whole entry, the tested form may be a part): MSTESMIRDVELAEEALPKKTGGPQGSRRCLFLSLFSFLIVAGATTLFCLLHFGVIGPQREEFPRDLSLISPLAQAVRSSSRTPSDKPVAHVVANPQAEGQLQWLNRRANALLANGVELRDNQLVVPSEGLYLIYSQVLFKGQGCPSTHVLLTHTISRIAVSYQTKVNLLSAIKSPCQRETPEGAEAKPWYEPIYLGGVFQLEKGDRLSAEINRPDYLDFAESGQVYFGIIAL

With CC(=O)N1c2ccc(S(=O)(=O)N3CCN(c4ccc(C)cc4)CC3)cc2CC1C (stereo unspecified) the IC50 (Tumor necrosis factor) was 4.32 µM (active), the IC50 [1] was 5.76 µM (active) and the IC50 (HEK293) was > 20 µM (inactive).
In the case of COC(=O)c1ccc(C)c(-n2c(=O)n(Cc3ccccc3)c(=O)c3[nH]cnc32)c1, the IC50 [2] is reported as > 32 µM (inactive), the IC50 [3] is reported as 6.39 µM (active) and the EC50 (Beta-galactosidase) is reported as 11.5 µM (active). For the same compound, the IC50 [4] was > 32 µM, the EC50 (Mu-type opioid receptor) was > 32 µM (inactive) and the EC50 [5] was > 32 µM (inactive).
In the case of CC(NC(=O)/C(C#N)=C/c1ccc(Cl)c([N+](=O)[O-])c1)c1ccccc1 (stereo unspecified), the AC50 (CAAX prenyl protease 2 [6]) is reported as 8.59 µM (active), the EC50 (Protein RecA) is reported as 5.2 µM (active) and the IC50 [7] is reported as 8.95 µM (active). For the same compound, the AC50 [8] was 18.2 µM (active), the AC50 (CAAX prenyl protease 2 [9]) was 2.44 µM (active) and the EC50 (Integrin alpha-4) was 2.42 µM (active). The EC50 [10] was 17.8 µM (active), the EC50 [11] was 13.5 µM (active) and the AC50 [12] was 4.02 µM (active). The IC50 [13] was 2.53 µM (active).
For CCC(C)NS(=O)(=O)c1ccc(NC(=O)C(Sc2ccccc2)c2ccccc2)cc1 (stereo unspecified), the EC50 [14] was > 32 µM (inactive), the EC50 [15] was > 60 µM (not active) and the EC50 (Cannabinoid receptor 2 [16]) was > 32 µM (inactive). The IC50 (Cannabinoid receptor 2 [17]) was > 32 µM (inactive), the IC50 [7] was 0.592 µM (active) and the IC50 (Cannabinoid receptor 1 [18]) was 0.975 µM (active). The EC50 (Cannabinoid receptor 1 [19]) was > 32 µM (inactive), the IC50 [20] was 1.94 µM (active) and the EC50 [21] was 2.34 µM (active). For the same compound, the EC50 [10] was 13.6 µM (active), the EC50 [11] was 14.5 µM (active) and the IC50 [22] was > 32 µM (inactive).
